Reference: patent EP3072956A1, “Selective culture medium for polymyxin-resistant, gram-negative bacteria” (priority 2015, dated 2016)

Columns and labels:
A. baumannii = assay: MIC determination by broth microdilution (MHB-CA, CLSI); format: cell-based
Protocol: (§1) Determination of MIC values were performed by broth microdilution in Cation-Adjusted Mueller-Hinton broth (MHB-CA) according to the CLSI guidelines (Clinical and Laboratory Standards Institute). Polymyxin B and colistin (Sigma-Aldrich, Saint-Louis) were tested with or without Tween 80 over a range dilution from 0.12 to 128 µg/ml. The surfactant Tween 80, at a final concentration of 0.002%, prevents the binding of polymyxins to multi-array plastic panel. Actually, the use of Tween for determination of MIC of polymyxins is still debatable. MHB-CA broth and 5.10^5 CFU/ml of each tested strain were distributed in each well. Following the EUCAST breakpoints, strains were characterized as susceptible or resistant to polymyxins.

P. vulgaris = assay: as above; format: cell-based; conditions: strain Pvul
Protocol: as §1

Substance	MIC (A. baumannii; strain 38B9, With Tween80)	MIC (A. baumannii; strain 38B9, Without Tween80)	MIC (A. baumannii; strain Aba6, With Tween80)	MIC (A. baumannii; strain Aba6, Without Tween80)	MIC (A. baumannii; strain C105, With Tween80)	MIC (A. baumannii; strain C105, Without Tween80)	MIC (P. vulgaris; With Tween80)	MIC (P. vulgaris; Without Tween80)
colistin	0.25 µg/mL	0.5 µg/mL	128 µg/mL	128 µg/mL	0.12 µg/mL	0.5 µg/mL	>128 µg/mL	>128 µg/mL
polymyxin B	0.25 µg/mL	0.5 µg/mL	128 µg/mL	128 µg/mL	0.12 µg/mL	0.5 µg/mL	>128 µg/mL	>128 µg/mL
